Entries after “also recorded” stand apart in the source; their conditions may differ.
How the values were obtained:
Crm1 [1] = molecular target: T1, Crm1 (Mus musculus, UniProt Q6P5F9); assay: Inhibition of Crm1-dependent nuclear exportation in NIH-3T3 cells transfected with eGFP-NPM constructs; type: cell-based, murine; conditions: for sub-cellular localization of NPM mutant proteins after treatment (confocal microscopy): transfected NIH3T3 cells (HI299 or NIH3T3), leptomycin B 20 ng/ml
T1 construct: endogenous in cells; host or cells: NIH-3T3 cells, transfected only with eGFP-NPM reporter constructs
T1 sequence (Q6P5F9 whole entry): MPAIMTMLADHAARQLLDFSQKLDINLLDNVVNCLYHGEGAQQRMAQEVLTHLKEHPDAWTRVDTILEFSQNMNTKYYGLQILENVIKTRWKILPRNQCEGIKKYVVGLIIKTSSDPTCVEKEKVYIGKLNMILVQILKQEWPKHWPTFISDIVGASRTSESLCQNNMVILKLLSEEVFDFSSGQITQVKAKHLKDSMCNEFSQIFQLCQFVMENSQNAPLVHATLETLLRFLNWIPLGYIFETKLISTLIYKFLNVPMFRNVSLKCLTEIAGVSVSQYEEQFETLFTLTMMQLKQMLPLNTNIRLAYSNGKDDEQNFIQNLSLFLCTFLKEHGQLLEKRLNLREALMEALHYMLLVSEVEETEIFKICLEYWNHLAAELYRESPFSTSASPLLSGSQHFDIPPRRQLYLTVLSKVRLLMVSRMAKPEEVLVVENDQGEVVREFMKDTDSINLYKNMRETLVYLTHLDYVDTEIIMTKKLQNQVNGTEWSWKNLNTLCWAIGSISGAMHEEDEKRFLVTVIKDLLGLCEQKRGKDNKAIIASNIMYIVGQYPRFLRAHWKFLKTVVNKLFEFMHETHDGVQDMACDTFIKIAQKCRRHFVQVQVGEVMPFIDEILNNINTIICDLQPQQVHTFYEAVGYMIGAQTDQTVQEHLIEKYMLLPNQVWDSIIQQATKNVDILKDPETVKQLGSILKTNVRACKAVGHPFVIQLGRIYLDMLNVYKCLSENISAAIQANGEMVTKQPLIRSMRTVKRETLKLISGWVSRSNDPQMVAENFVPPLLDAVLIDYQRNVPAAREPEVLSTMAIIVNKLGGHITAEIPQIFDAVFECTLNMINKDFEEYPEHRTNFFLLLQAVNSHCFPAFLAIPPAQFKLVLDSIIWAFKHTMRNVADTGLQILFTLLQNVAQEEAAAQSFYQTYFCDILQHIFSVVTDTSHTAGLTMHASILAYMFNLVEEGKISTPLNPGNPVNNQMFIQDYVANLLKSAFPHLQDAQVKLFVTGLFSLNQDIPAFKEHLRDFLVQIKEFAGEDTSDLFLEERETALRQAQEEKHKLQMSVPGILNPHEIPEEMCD
Description: NIH-3T3 cells were transfected using Lipofectamin 2000 (Invitrogen Carlsbad, Calif., USA) following the manufacturer instructions. After 24 hours, the cells grown on the slide were incubated with cycloeximide (Merck Biosciences Ltd, Nottingham UK) 10 micro grams/ml (30 minutes) and leptomycin B (Merck Biosciences Ltd, Nottingham UK) 20 ng/ml (5 hours), or other Crm1 inhibitors such as ratjadons A and C (Alexis Biochemicals, Carlsbad, Calif., USA) 20 ng/ml (5 hours).
The cells were fixed in 4% paraformaldehyde (10 minutes) for immunofluorescence and confocal microscope analysis.
For “time course” experiments, transfected cells were transferred inside an Attofluor chamber (Molecular Probes, Eugene, Oreg., USA) and were observed using a MRC-1024 confocal apparatus (Biorad Cambridge, UK) assembled on an Olympus IMT-2 microscope. The images of a single section were recorded before and after the addition of leptomicin B, at 60 second intervals, using the time-series function of Laser-Sharp program (BioRad). The excitation wavelength was 488 nm and images were detected using a filter from 505 to 550 nm on the PMT2.
The images were processed and analysed using the well known ImageJ program (Rasband WS, Image J, U.S. National Institutes of Health, Bethesda, Md., USA, http://rsb.info.nih.gov/ij/, 1997-2005).
For western-blotting analyses of the sub-cellular distribution of GFP-NPM mutant A protein, NIH-3T3 cells transfected with GFP vector or with GFP-NPM mutant A, as described above, were incubated with leptomicin B 20 ng/ml (or with methanol as control) without cycloeximide for 3 or 6 hours. Then cells were harvested, washed with PBS and lysed in hypotonic buffer according to the method of Schreiber et al. (1989). The supernatant was preserved as cytoplasmic fraction. The pellet, containing nuclei, was again washed with the hypotonic buffer, then solubilised in a hypertonic buffer and boiled in a solution containing SDS before loading.
Equivalent dilutions (with the same cell number) of cytoplasmic and nuclear fractions were loaded, blotted on nitrocellulose and incubated with an anti-GFP monoclonal antibody (Roche, Indianapolis, Ind., USA) for Western-blot analysis of the distribution of GFP-NPM mutant A.

Crm1 [2] = molecular target: T2, Crm1 (Homo sapiens, UniProt O14980); assay: Inhibition of Crm1-dependent nuclear exportation in transfected H1299 cells; type: cell-based; conditions: HI299 cells
T2 sequence (O14980 whole entry): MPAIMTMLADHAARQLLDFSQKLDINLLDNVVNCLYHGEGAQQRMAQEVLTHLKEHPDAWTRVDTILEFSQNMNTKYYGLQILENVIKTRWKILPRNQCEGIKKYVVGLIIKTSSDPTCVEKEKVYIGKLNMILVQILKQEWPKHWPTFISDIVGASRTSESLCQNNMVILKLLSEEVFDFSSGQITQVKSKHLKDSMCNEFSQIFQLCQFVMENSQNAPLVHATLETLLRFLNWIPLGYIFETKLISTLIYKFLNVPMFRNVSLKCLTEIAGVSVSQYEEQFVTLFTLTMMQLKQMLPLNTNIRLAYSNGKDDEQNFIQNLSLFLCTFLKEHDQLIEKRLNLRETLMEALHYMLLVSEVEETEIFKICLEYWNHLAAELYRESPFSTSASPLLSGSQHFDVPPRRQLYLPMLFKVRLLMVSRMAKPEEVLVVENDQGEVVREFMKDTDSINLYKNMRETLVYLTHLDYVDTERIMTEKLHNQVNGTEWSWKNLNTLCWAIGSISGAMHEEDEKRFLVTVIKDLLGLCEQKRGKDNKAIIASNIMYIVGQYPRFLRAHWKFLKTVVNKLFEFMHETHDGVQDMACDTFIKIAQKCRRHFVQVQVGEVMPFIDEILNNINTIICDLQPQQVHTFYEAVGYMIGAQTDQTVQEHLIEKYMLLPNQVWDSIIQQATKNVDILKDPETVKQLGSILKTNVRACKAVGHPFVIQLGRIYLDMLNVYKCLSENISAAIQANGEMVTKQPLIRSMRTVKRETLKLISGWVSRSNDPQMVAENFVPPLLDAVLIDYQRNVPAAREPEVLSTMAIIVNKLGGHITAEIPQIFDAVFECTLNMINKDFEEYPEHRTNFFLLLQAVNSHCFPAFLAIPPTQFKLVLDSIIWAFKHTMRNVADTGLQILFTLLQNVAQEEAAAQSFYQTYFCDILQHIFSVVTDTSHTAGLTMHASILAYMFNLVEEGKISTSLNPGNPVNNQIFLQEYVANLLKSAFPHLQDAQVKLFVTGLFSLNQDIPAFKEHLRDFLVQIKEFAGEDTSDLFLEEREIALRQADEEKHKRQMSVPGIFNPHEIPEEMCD
Description: The H1299 cells were seeded on the surface of six-well plates 24 hours before transfection. 5 μg of expression vector encoding for wild type HA-NPM, GFP-NPM-mutant A, or both, were transfected using the precipitation method with calcium-phosphate. After 24 hours, the cells were treated with 20 nM leptomycin B, a Crml specific inhibitor (Sigma, St. Louis, Mo., USA) for 8 hours or not treated, respectively. The cells then were fixed in 4% paraformaldehyde for the immunofluorescence study.
The DAPI staining was used to visualise nucleuses of H1299 cells transfected with the GFP-NPM-mutant A and with GFP-NPM wt. For Flag-HA constructs, the fixed cells were made permeable with 0.2% Triton-X 100 (10 minutes) followed by blocking with 10% anti-goat serum (30 minutes). Then primary anti-HA antibody was added (1:1000, Roche Indianapolis, Ind., USA) for 1 hour followed by incubation for 30 minutes with the secondary Alexa-568 antibody (1:1000, Molecular Probes, Oregon, USA). The images were taken using a digital camera with the Spot 4.09 program (Diagnostic Instruments, Sterling Heights, Mich., USA).

Crm1 [3] = molecular target: T2, Crm1; assay: Nuclear re-localization of NPM in leukaemic cells of NPMc+ AML patients (mutation A); type: cell-based; conditions: NPMc+ AML patient cells, leptomycin B 20 ng/ml
Description: Cells deriving from two patients with NPMc+AML (carrying the mutation A) and from OCI/AML3 cellular line were harvested in medium (10^6 cell/ml in 24-well plates) and incubated at 37° C. with 5% CO2 […]. After the incubation overnight with leptomycin B (20 ng/ml), the cells were washed with PBS and centrifuged. The cell pellet was fixed in B5 and paraffin for the immunostaining.
The NPM coloration of paraffin embedded sections of AML cases containing the mutation A was carried out with monoclonal anti-NPM antibodies followed by a Alexa 488 conjugated secondary (Molecular Probes, Oregon, USA); the nuclei were contra-stained with propidium iodide. The images were taken with a confocal microscope Zeiss LSM 510 (Carl Zeiss, Jena, Del.), using laser excitation wavelengths at 488 nm (for ALexa 488), 543 nm (for Texas Red and the propidium iodide) and 633 nm (for TO-PRO-3), respectively. The laser intensity tuning, diameter of pinholes, and configuration of the light detection were set to achieve the best signal/noise ratio and avoid fluorescence crossover. The images were then transferred to a SGI Octane workstation (Silicon graphics, Mountain View, Calif., USA) for further elaboration; 3D reconstruction was made with the shade or iso-surface method using the Imaris program (Bitplane, Zurich, CH).

Crm1 [4] = molecular target: T2, Crm1; assay: Nuclear re-localization of mutant NPM in OCI/AML3 cells; type: cell-based; conditions: OCI/AML3, mutation A, LMB 20 ng/ml
[5] = NIH-3T3 cells, with and without LMB

Q: Which results are given for `CCC(=C/[C@H](C)C/C=C/C(C)=C/[C@@H](C)C(=O)[C@@H](C)[C@H](O)[C@@H](C)C/C(C)=C/C(=O)O)/C=C/[C@@H]1OC(=O)C=C[C@@H]1C` [Leptomycin B, leptomycin B]?
A: re-localization of type E NPM mutant (tryptophan 288 kept) (Crm1 [1]; NIH-3T3 cells, after Leptomicin B): not only at nucleoplasma but also at nucleolus level; mutant type A re-localized in nucleus (Crm1 [1]; NIH-3T3 cells, eGFP-NPMmutA, 20 minutes after LMB): About 50%; time for the whole re-localization process to be completed (Crm1 [1]; NIH-3T3 cells, eGFP-NPMmutA, LMB): 1 h; Western blot sub-cellular distribution of GFP-NPM mutant A (Crm1 [1]; NIH-3T3 cells, leptomicin B 20 ng/ml, 3 or 6 hours, no cycloeximide): progressively accumulates in the pellet containing nucleuses; eGFP-NPMmutA fluorescence in regions of interest over time (Crm1 [1]; NIH-3T3 cells, time course after addition of LMB): reduction of fluorescence in cytoplasm and Golgi area and concomitant fluorescence increase in nucleoplasm; localization of GFP-NPMwt (Crm1 [1]; [5]): localizes in the nucleoli both in the presence and in the absence of LMB; localization of NPM mut A no-NES (Crm1 [1]; [5]): localized in the nucleoplasm both in presence and in absence of LMB; localization of mutant A with both tryptophans re-inserted (C288W+A290W) (Crm1 [1]; NIH-3T3 cells, with and without Leptomicin B): locates completely in nucleoli, independently from the presence of Leptomicin B; sub-cellular localization of NPM mutant proteins after treatment (confocal microscopy) (Crm1 [1]; listed as LMB): repositions in nucleoplasm; sub-cellular localization of NPM mutant proteins after treatment (confocal microscopy) (Crm1 [1]; listed as Leptomicin B): re-localized from the cytoplasmic to the nuclear compartment (nucleoplasm); also recorded: re-localized in the nucleus and, specifically, in nucleoplasm; localization of eGFP NPM mutants A to D (Crm1 [2]; in the presence of LMB 20 nM, 8 hours): completely replaced in the nucleus in the presence of LMB; localization of eGFP-NPMwt (Crm1 [2]; with and without LMB): localized in nucleoli both in the presence and in the absence of LMB; NPM localization in purified leukaemic cells (376 staining, confocal) (Crm1 [3]): NPM is in nucleus again; NPM localization in OCI/AML3 cells (376 staining) (Crm1 [4]): re-localization of NPM in the nucleoplasm

Reference: patent US8501924B2, “Nucleophosmin protein (NPM) mutants, corresponding gene sequences and uses thereof” (priority 2004, dated 2013)
